Measured values: ChEMBL document CHEMBL1909046, “DrugMatrix in vitro pharmacology data”

What was measured:
Progesterone receptor = target: T1, Progesterone receptor (Bos taurus, UniProt Q690N0); assay: DRUGMATRIX: Progesterone radioligand binding (ligand: [3H] R-5020); type: tissue-based, Uterus; conditions: Not Active = under 50% inhibition at 10 µM; for Ki: read-out: Ki
T1 sequence (Q690N0 whole entry): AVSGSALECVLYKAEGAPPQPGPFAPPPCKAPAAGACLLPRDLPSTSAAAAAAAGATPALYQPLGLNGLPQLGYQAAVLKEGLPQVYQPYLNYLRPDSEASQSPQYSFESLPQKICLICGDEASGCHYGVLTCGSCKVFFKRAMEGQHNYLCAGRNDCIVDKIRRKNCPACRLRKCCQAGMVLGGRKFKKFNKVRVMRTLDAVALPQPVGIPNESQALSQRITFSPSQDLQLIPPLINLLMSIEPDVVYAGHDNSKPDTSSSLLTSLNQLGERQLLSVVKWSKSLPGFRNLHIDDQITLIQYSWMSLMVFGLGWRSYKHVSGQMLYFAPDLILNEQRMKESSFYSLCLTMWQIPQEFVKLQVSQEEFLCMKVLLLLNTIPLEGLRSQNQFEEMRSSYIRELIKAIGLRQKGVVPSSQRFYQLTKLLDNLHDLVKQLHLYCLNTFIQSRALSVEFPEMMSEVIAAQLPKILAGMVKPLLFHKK

[1] = target: T2, Neuropeptide Y receptor type 2 (Homo sapiens, UniProt P49146); type: cell membranes, KAN-TS, Membrane; conditions: kan-ts; further: in other assays of this panel Not Active means under 50% inhibition at 10 µM
T2 sequence (P49146 whole entry): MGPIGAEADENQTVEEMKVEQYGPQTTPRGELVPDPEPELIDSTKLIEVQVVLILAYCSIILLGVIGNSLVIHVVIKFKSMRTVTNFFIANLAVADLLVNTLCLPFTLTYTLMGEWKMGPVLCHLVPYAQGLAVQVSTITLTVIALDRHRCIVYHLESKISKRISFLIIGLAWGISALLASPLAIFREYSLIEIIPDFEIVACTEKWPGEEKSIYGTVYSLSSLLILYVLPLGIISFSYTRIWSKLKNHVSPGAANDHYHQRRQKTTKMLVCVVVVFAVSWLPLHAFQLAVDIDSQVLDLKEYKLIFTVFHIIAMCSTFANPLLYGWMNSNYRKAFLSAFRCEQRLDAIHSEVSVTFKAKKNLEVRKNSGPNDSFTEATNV

[2] = target: T3, Alpha-2C adrenergic receptor (Homo sapiens, UniProt P18825); assay: DRUGMATRIX: Adrenergic Alpha-2C radioligand binding (ligand: [3H] MK-912); type: cell membranes, Sf9, Membrane
T3 sequence (P18825 whole entry): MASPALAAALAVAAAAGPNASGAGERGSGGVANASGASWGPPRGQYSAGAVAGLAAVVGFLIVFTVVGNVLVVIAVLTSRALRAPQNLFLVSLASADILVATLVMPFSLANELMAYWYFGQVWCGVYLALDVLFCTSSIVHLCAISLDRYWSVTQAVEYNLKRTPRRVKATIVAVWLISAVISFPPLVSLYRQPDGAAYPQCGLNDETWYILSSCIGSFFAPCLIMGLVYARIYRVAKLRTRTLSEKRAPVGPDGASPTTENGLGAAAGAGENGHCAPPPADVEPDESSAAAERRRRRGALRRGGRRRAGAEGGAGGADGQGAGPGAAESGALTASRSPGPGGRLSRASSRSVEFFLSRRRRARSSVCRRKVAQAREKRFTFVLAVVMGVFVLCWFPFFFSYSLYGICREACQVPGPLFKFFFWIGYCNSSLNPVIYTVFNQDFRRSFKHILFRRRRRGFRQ

D(1A) dopamine receptor = D(1A) dopamine receptor (Homo sapiens, UniProt P21728); assay: DRUGMATRIX: Dopamine D1 radioligand binding (ligand: [3H] SCH-23390); type: cell membranes, CHO, Membrane; conditions: Not Active = under 50% inhibition at 10 µM
[3] = DRUGMATRIX: Glutamate, Kainate radioligand binding (ligand: [3H] Kainic acid); type: cell membranes, Rattus norvegicus, Wistar, Brain, Membrane; conditions: Not Active = under 50% inhibition at 10 µM
[4] = target: Beta-2 adrenergic receptor (Homo sapiens, UniProt P07550); assay: DRUGMATRIX: Adrenergic beta2 radioligand binding (ligand: [3H] CGP-12177); type: cell membranes, CHO, Membrane; conditions: cho; Not Active = under 50% inhibition at 10 µM
Sequence of Beta-2 adrenergic receptor (P07550 whole entry): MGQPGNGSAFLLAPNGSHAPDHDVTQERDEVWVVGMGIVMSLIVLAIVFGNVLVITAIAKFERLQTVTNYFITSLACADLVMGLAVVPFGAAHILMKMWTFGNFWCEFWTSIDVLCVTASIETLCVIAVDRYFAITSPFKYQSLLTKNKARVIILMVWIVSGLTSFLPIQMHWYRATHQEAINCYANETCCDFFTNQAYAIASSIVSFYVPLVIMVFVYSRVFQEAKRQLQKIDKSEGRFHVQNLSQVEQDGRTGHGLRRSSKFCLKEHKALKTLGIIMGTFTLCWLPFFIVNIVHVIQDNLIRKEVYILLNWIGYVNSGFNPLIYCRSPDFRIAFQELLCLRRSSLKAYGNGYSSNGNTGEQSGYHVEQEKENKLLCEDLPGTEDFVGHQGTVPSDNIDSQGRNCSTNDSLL

Sequence of D(1A) dopamine receptor (P21728 whole entry): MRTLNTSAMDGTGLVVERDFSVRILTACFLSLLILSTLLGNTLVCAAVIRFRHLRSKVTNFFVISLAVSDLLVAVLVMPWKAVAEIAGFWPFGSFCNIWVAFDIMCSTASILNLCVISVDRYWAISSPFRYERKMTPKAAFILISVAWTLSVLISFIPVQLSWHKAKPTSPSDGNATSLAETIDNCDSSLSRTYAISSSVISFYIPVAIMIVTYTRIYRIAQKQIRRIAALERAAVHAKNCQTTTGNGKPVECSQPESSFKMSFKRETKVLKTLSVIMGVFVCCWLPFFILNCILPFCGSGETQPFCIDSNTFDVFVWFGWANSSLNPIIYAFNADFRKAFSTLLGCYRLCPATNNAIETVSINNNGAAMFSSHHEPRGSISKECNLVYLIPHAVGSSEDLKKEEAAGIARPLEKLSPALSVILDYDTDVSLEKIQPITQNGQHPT

SMILES: O=C1CN=C(c2ccccc2Cl)c2cc([N+](=O)[O-])ccc2N1 [CLONAZEPAM]
- IC50 (Progesterone receptor): Not Active
- IC50 [1]: Not Active
- IC50 ([2]; sf9): Not Active
- IC50 (D(1A) dopamine receptor; cho): Not Active
- IC50 [3]: Not Active
- Ki [3]: Not Active
- IC50 [4]: Not Active

SMILES: Nc1ccn([C@@H]2O[C@H](CO)[C@@H](O)[C@@H]2O)c(=O)n1 [CYTARABINE]
- IC50 (Progesterone receptor): Not Active
- IC50 [1]: Not Active
- IC50 ([2]; sf9): Not Active
- IC50 (D(1A) dopamine receptor; cho): Not Active
- IC50 [3]: Not Active
- Ki [3]: Not Active
- IC50 [4]: Not Active

SMILES: C[C@@H]1C[C@H]2[C@@H]3CCC4=CC(=O)C=C[C@]4(C)[C@@]3(F)[C@@H](O)C[C@]2(C)[C@H]1C(=O)CO [DESOXIMETASONE]
- IC50 (Progesterone receptor; read-out: IC50): 0.084 µM
- Ki (Progesterone receptor): 0.011 µM
- IC50 [1]: Not Active
- IC50 ([2]; sf9): Not Active
- IC50 (D(1A) dopamine receptor; cho): Not Active
- IC50 [3]: Not Active
- Ki [3]: Not Active
- IC50 [4]: Not Active

SMILES: C[C@@H]1C[C@H]2[C@@H]3CCC4=CC(=O)C=C[C@]4(C)[C@@]3(F)[C@@H](O)C[C@]2(C)[C@@]1(O)C(=O)CO [DEXAMETHASONE]
- IC50 (Progesterone receptor; read-out: IC50): 23.3 µM
- Ki (Progesterone receptor): 3.04 µM
- IC50 [1]: Not Active
- IC50 ([2]; sf9): Not Active
- IC50 (D(1A) dopamine receptor; cho): Not Active
- IC50 [3]: Not Active
- Ki [3]: Not Active
- IC50 [4]: Not Active

SMILES: CN(C)CC[C@@H](c1ccc(Cl)cc1)c1ccccn1 [DEXCHLORPHENIRAMINE]
- IC50 (Progesterone receptor): Not Active
- IC50 [1]: Not Active
- IC50 ([2]; sf9): Not Active
- IC50 (D(1A) dopamine receptor; cho): Not Active
- IC50 [3]: Not Active
- Ki [3]: Not Active
- IC50 [4]: Not Active

SMILES: C[C@@H]1CC[C@@]2(OC1)O[C@H]1[C@@H](O)[C@H]3[C@@H]4CC[C@H]5C[C@@H](O[C@@H]6O[C@H](CO)[C@H](O[C@@H]7O[C@H](CO)C(O)[C@H](O[C@@H]8OC[C@@H](O)[C@H](O)[C@H]8O)[C@H]7O[C@@H]7O[C@H](CO)[C@H](O)[C@H](O[C@@H]8O[C@H](CO)[C@@H](O)[C@H](O)[C@H]8O)[C@H]7O)[C@H](O)[C@H]6O)[C@H](O)C[C@]5(C)[C@H]4CC[C@]3(C)[C@H]1[C@@H]2C (stereo not given in full) [DIGITONIN]
- IC50 (Progesterone receptor): Not Active
- IC50 [1]: Not Active
- IC50 ([2]; sf9): Not Active
- IC50 (D(1A) dopamine receptor; cho): Not Active
- IC50 [3]: Not Active
- Ki [3]: Not Active
- IC50 [4]: Not Active

SMILES: OC(CCCN1CCCCC1)(c1ccccc1)c1ccccc1 [DIPHENIDOL]
- IC50 (Progesterone receptor): Not Active
- IC50 [1]: Not Active
- IC50 ([2]; sf9): Not Active
- IC50 (D(1A) dopamine receptor; cho): Not Active
- IC50 [3]: Not Active
- Ki [3]: Not Active
- IC50 [4]: Not Active

SMILES: C[C@H]1O[C@@H](n2cc(F)c(=O)[nH]c2=O)[C@H](O)[C@@H]1O [DOXIFLURIDINE]
- IC50 (Progesterone receptor): Not Active
- IC50 [1]: Not Active
- IC50 ([2]; sf9): Not Active
- IC50 (D(1A) dopamine receptor; cho): Not Active
- IC50 [3]: Not Active
- Ki [3]: Not Active
- IC50 [4]: Not Active

SMILES: Cn1c(=O)c2c(ncn2CC(O)CO)n(C)c1=O (stereo not given) [DYPHYLLINE]
- IC50 (Progesterone receptor): Not Active
- IC50 [1]: Not Active
- IC50 ([2]; sf9): Not Active
- IC50 (D(1A) dopamine receptor; cho): Not Active
- IC50 [3]: Not Active
- Ki [3]: Not Active
- IC50 [4]: Not Active

SMILES: CC[C@H]1CN2CCc3cc(OC)c(OC)cc3[C@@H]2C[C@@H]1C[C@H]1NCCc2cc(OC)c(OC)cc21 [EMETINE]
- IC50 (Progesterone receptor): Not Active
- IC50 [1]: Not Active
- IC50 ([2]; read-out: IC50): 0.182 µM
- Ki ([2]; read-out: Ki): 0.026 µM
- IC50 (D(1A) dopamine receptor; cho): Not Active
- IC50 [3]: Not Active
- Ki [3]: Not Active
- IC50 [4]: Not Active

SMILES: C[C@@H](CO)NC(=O)[C@@H]1C=C2c3cccc4[nH]cc(c34)C[C@H]2N(C)C1 [ERGONOVINE]
- IC50 (Progesterone receptor): Not Active
- IC50 [1]: Not Active
- IC50 ([2]; sf9): Not Active
- IC50 (D(1A) dopamine receptor; read-out: IC50): 5.9 µM
- Ki (D(1A) dopamine receptor; read-out: Ki): 2.95 µM
- IC50 [3]: Not Active
- Ki [3]: Not Active
- IC50 [4]: Not Active

SMILES: COC(=O)CCc1ccc(OCC(O)CNC(C)C)cc1 (stereo not given) [ESMOLOL]
- IC50 (Progesterone receptor): Not Active
- IC50 [1]: Not Active
- IC50 ([2]; sf9): Not Active
- IC50 (D(1A) dopamine receptor; cho): Not Active
- IC50 [3]: Not Active
- Ki [3]: Not Active
- IC50 [4]: Not Active

SMILES: CCC1(C)CC(=O)NC1=O (stereo not given) [ETHOSUXIMIDE]
- IC50 (Progesterone receptor): Not Active
- IC50 [1]: Not Active
- IC50 ([2]; sf9): Not Active
- IC50 (D(1A) dopamine receptor; cho): Not Active
- IC50 [3]: Not Active
- Ki [3]: Not Active
- IC50 [4]: Not Active
